# Experimental data as given in patent US10935541B2 (priority 2014, dated 2021).
# “Also recorded” adds a separate entry of the source. Read-outs that look alike come from different tables or passages of the source.
# Legend:
# [1] = test system: co-cultures of primary rat muscle cells and motoneurons; format: cell-based; conditions: for average contraction frequency: co-culture 13 days in vitro, n=10, spontaneous 1.4 Hz; for contractile force (average peak force): mean ± SEM
# Description: (§1) Myotube contraction was recorded and characterized via measurement of cantilever deflection using an automated system. In this system, cantilevers supporting co-cultured myotubes and motoneurons were inserted into a transparent culture dish fitted into a modified upright Olympus BX51WI electrophysiology microscope. The culture dish was filled with NBActiv4 medium (+10 mM HEPES) to maintain the cells during the analysis. A heated culture dish system (Delta T, Bioptechs, Butler, Pa.) was incorporated into the stage to maintain the culture at 37° C. throughout the analysis.
# The automated system consisted of a Helium Neon laser beam that was automatically scanned across the tips of each cantilever at a 30° angle relative to the plane of the cantilever. A quadrant photo-detector module was also moved to detect the reflected beam. Four stepper motor-driven linear actuators attached to XY translational stages controlled the positions of the laser and photo-detector, with each unit mounted to an XY stage and requiring an actuator for the X and Y translation directions. A temperature-controlled stage was incorporated into the unit to maintain the cells at physiological temperature. Stainless steel electrodes were mounted inside the stage dish at a separation distance of 15 mm. To allow the system to produce field stimulation of myotubes when appropriate, the electrodes were connected to a pulse generator (A-M systems, Sequim, Wash.), which was capable of producing field stimulation pulses of varying intensity, frequency, and waveform.
# (§2) Broad field electrical stimulation was first used to verify the contractile ability of the cultured myotubes. Cultures were subjected to a 3 V, 40 ms pulse at a frequency of 1 Hz, and the cantilevers were scanned for 5 seconds each to identify those with active myotubes. Across all experimental conditions, a successful contractile response was taken as any peak equal to or larger than 0.1 V.
# (§3) The electrical stimulus was then switched off and the active cantilevers scanned again in order to observe the rate of spontaneous contraction. This condition was followed by bath application of 200 μM glutamate to stimulate motoneuron firing, and the cantilevers were again scanned for evidence of contractile activity. A second application of glutamate was made following addition of 12.5 μM D-tubocurarine (Sigma-Aldrich) to block neuromuscular transmission. The cantilevers were again scanned for contractile activity following this treatment. Finally, cantilevers were subjected to the same broad-field electrical stimulation as was used initially and scanned for contractile activity to verify that the treatments had not destroyed the contractile capability of the myotube or caused the cells to detach.
# (§4) Conversion of photo-detector readings to cantilever deflection and myotube force were performed using a modified Stoney's equation (Wilson et al., 2010). Briefly, the photo-detector measured the changes in cantilever bending-induced laser deflection (reported in Volts) from which the deflection of the cantilever tip was calculated. Equations (1) and (2) are restated equations (see, e.g., Wilson et al., 2010) for cantilever tip deflection (δ) and stress produced by the myotube, assuming a uniform thick film the full width of the cantilever (σc). The system parameters used in these equations were the system-specific coefficient relating voltage to laser position on the photo-detector (Cdetector), the angle of the laser and detector relative to the plane of the cantilever (A), the elastic modulus of silicon (ESi), the thicknesses of the cantilever (tSi) and myotube (tf), poison's ratio of silicon (vSi), cantilever length (L), path length of laser from cantilever tip to detector (P), and the width of the cantilever (wsi).
# (§5) Differences in force per contraction and in contraction frequency were measured for the three conditions: (i) Spontaneous activity, (ii) 200 μM glutamate, and (iii) 12.5 μM D-tubocurarine following glutamate. […]
# [2] = test system: myotubes from muscle-only cultures; format: cell-based, rat
# Description: Muscle-only control cultures were established in parallel to all co-cultures examined. These cultures were subjected to identical culture parameters minus the plating of ventral horn cells after 7 days in vitro.
# as §1, §2, §3, §4
# as §5, with “glutamate. The differences were evaluated statistically using one-way repeated measures ANOVA (α=0.05) both for the muscle-only controls and for the motoneuron-myotube co-cultures.” for “glutamate.”
# [3] = test system: ventral horn motoneurons; experiment: Whole-cell patch-clamp recording of cultured motoneurons, response to glutamate; format: cell-based, rat
# From the text: After 11-13 days in vitro, electrophysiological properties of ventral horn motoneurons were investigated using whole-cell patch-clamp recording techniques. Glass coverslips with cultured ventral horn cells were transferred to a recording chamber located on the stage of a Zeiss Axioscope 2FS Plus upright microscope. Motoneurons were identified visually under an infrared differential interference contrast (DIC) video-microscope. The largest multipolar cells (15-20 μm diameters) with bright somas were identified as motoneurons. Borosilicate glass patch pipettes (BF 150-86-10; Sutter Instrument Company) with a resistance of 6-10 MΩ were made using a Sutter P97 pipette puller (Sutter Instrument Company). Current-clamp and voltage-clamp recordings were made using a Multiclamp 700 A amplifier (Axon instruments). The pipette (intracellular) solution contained 1 mM EGTA, 140 mM K-gluconate, 2 mM MgCl2, 2 mM Na2ATP and 10 mM HEPES (pH 7.2). NBActiv4 medium plus 10 mM HEPES (pH 7.2) was used as the extracellular solution.
# After the formation of a giga-ohm seal and membrane puncture, the cell capacitance was compensated. Signals were filtered at 3 kHz and sampled at 20 kHz using a Digidata 1322A interface (Axon Instruments). Data recording and analysis were performed with pClamp8 software (Axon Instruments). Membrane potentials were corrected by subtraction of a 15 mV tip potential, which was calculated using Axon's pClamp8 program. Depolarization-evoked inward and outward currents were examined in voltage-clamp mode. Depolarization-evoked action potentials were examined in current-clamp mode and induced using 1 second depolarizing current injections from a −70 mV holding potential. Action potentials elicited in response to 200 μM glutamate (an excitatory neurotransmitter) (Sigma-Aldrich) injection into the extracellular solution were likewise measured in current-clamp mode from a −70 mV holding potential.
# Patch-clamp recordings verified the ability of the co-culture protocol to promote the maturation of electrically-active motoneurons after 11-13 days in culture. […]
# [4] = test system: neuromuscular junction; format: cell-based
compound,measurement,setting,value
COc1cc2c3cc1Oc1cc(ccc1O)C[C@@H]1c4c(cc(OC)c(O)c4Oc4ccc(cc4)C[C@@H]3N(C)CC2)CC[N+]1(C)C [D-tubocurarine],average contraction frequency,[1]; 12.5 μM D-tubocurarine with glutamate,1.4 Hz
same,contractile force compared with force in response to glutamate,"[1]; 12.5 μM D-tubocurarine, co-culture",not significantly different
same,contractile force (average peak force),"[1]; after addition of 12.5 μM D-tubocurarine, co-culture",45.1 nN
same,effect on glutamate-increased contraction frequency,[1]; all cases of glutamate increasing contraction frequency by at least 2 Hz,returned the contraction frequency to spontaneous levels
same,inhibitory effect on myotube contraction,"[2]; 12.5 μM D-tubocurarine, all control cases",no inhibitory effect on myotube contraction
same,contraction frequency compared with frequency in response to glutamate,"[2]; 12.5 μM D-tubocurarine, muscle-only controls, p=0.04",significant increase in contraction frequency
N[C@@H](CCC(=O)O)C(=O)O [glutamate],average contraction frequency,[1]; 200 μM glutamate,4.9 Hz
same,effect on force generated by contracting myotubes,"[1]; glutamate, co-culture, n=10, p=0.60",no significant effect
same,contractile force (average peak force),"[1]; glutamate-evoked contractions, 200 μM, co-culture, spontaneous 106.0 nN",67.4 nN
same,largest increase in contraction frequency in response to glutamate,"[2]; 200 μM glutamate, muscle-only controls",0.85 Hz
same,effect on contraction frequency,"[2]; 200 μM glutamate, muscle-only cultures, n=10",did not significantly alter contraction frequency
same,effect on force generated by contracting myotubes,"[2]; glutamate, muscle-only controls, n=7, p=0.24",no effect
same,duration of motoneuron activity in response to glutamate,[3]; 200 μM glutamate bath application,roughly 2.5 minutes
same,"response of motoneurons to bath application (membrane depolarization, action potentials)","[3]; 200 μM glutamate, gap-free current-clamp, -70 mV holding potential, n=17",depolarization of the membrane and elicited action potentials in all motoneurons examined
same,response of patched motoneurons to a second application,"[3]; second application of glutamate, n=3",again depolarized the motoneuron membrane in all cells examined
α-Bungarotoxin,"effect on myotube contractions, stimulation from first chamber (myotube side)",[4],did not inhibit contraction; also recorded: contractions are still possible
same,"effect on myotube contractions, stimulation from second chamber (motoneuron side)",[4],less and less responsive; also recorded: decreased contraction of the myotubes
